From patent publication US9814709B2, “Bruton's tyrosine kinase inhibitor” (HEFEI INSTITUTES OF PHYSICAL SCIENCE, CHINESE ACADEMY OF …, priority 2014, dated 2017)

Columns and labels:
BTK C481S protein = molecular target: T1, BTK C481S protein (Homo sapiens, UniProt Q06187, C481S); experiment: Btk acellular kinase assay, BTK C481S mutant protein purified from transfected 293T cells; type: biochemical; conditions: 3-1000 nM, 100 μM ATP
T1 construct: made in house; host or cells: 293T cells
Protocol: The BTK wild-type plasmid and the BTK mutant plasmid (C481S) were respectively transfected into 293T cells (purchased from ATCC), and the resultant cells were marked as BTK WT 293T cells and BTK C481S 293T cells, respectively. After cell culture for 2 days, the cells were harvested and purified to give BTK WT and BTK C481S proteins. The compounds of formula (I) were added to the BTK WT and BTK C481S proteins at different concentrations of 3 nM, 10 nM, 30 nM, 100 nM, 300 nM and 1000 nM, respectively, and reacted at room temperature for 30 min, followed by the addition of 100 μM ATP at 37° C. and reacting for 20 min.

[1] = system: PLCγ2Y1217 phosphorylation; experiment: Phosphorylation of PLCγ2 Y1217 in anti-IgM stimulated Ramos cells; type: cell-based; conditions: Homo sapiens, 4 hrs treatment, anti-IgM 10 min, read-out: EC50, inhibition of phosphorylation of PLCγ2Y1217
Protocol: (§1) We further characterized the properties of the compounds by assaying a number of cellular biochemical and functional endpoints. In particular, we assessed the selectivity of Compound 1 for inhibition of Btk versus the closely related protein kinases S6K, AKT, ErK, JAK3, and STAT5. Ramos cells (human B cells, purchased from ATCC) were treated with different concentrations of 10 nM, 100 nM, 1000 nM of the compounds of formula (I) for 4 hrs, followed by stimulation with anti-IgM for 10 min, and then the samples were harvested. We determined the effect of compounds on phosphorylation of BTKY223, PLCγ1Y783, PLCγ2Y759, PLCγ2Y1217, AKTT308, Erk1/2T202/204, JAK3 T980/981, STAT5 T694, mTORC1T389, MNK2 (FIG. 1).

tyrosine Y223 on Btk = molecular target: T2, tyrosine Y223 on Btk (Homo sapiens, UniProt Q06187); experiment: Phosphorylation of BTK Y223 in anti-IgM stimulated Ramos cells; type: cell-based; conditions: 4 hrs treatment, anti-IgM 10 min, read-out: EC50, inhibition of phosphorylation of tyrosine Y223 on Btk
T2 construct: host or cells: Ramos cells
T2 sequence (Q06187 whole entry): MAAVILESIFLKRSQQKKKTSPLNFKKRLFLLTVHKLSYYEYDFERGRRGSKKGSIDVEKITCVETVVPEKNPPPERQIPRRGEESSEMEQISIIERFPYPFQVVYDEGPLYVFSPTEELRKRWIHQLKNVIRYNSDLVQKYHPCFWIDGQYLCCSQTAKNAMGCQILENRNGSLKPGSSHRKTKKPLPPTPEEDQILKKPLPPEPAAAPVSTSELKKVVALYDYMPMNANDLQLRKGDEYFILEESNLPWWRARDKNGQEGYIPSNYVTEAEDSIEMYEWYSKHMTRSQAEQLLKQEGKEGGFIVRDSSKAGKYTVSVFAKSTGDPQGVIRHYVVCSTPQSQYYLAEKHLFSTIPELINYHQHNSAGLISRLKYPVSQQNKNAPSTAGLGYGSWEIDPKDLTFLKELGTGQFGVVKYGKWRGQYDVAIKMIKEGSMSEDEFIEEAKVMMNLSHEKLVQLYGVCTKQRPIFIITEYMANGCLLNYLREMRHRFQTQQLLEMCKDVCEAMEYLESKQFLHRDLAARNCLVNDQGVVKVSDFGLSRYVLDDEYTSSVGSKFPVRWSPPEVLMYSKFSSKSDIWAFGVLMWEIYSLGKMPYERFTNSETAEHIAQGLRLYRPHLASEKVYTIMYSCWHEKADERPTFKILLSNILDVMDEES
Protocol: as §1

EGFR (T790M) = molecular target: T3, EGFR (T790M) (Homo sapiens, UniProt P00533, T790M); experiment: In vitro enzymatic activity (ADP-Glo); type: biochemical; conditions: 4 hrs preincubation, 10 μM ATP
T3 construct: The intracellular segment (699-1068) region of EGFR was cloned into the insect expression vector pAcG2T; GST; made in house; host or cells: SF9 insect cells (baculovirus)
T3 sequence (P00533 699-1068 T790M): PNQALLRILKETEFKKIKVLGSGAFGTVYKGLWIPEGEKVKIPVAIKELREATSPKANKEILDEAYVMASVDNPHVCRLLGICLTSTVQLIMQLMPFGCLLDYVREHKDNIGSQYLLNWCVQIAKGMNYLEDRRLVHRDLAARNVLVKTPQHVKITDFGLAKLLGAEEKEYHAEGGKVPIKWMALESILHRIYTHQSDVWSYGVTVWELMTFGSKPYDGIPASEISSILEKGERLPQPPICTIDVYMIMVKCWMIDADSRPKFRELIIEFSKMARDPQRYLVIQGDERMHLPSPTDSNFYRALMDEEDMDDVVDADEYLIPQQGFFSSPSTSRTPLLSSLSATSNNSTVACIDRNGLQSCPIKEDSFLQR
Protocol: (§2) In the experimental assay of in vitro enzymatic activity, the IC50 values of Compound 1 and Compound 19 on different kinases including BTK, EGFR (WT), EGFR/T790M, EGFR L858R/T790M, JAK1, JAK2, and JAK3 were determined. The intracellular segment (699-1068) region of EGFR was cloned into the insect expression vector pAcG2T, and was protein expressed by using an insect expression system, BaculoGold™ Baculovirus Expression System (BD Pharmingen), with GST tag. The mutations of T790M and L858R sites were performed simultaneously to give T790M single mutant vector and T790M/L858R double mutant vector of EGFR, respectively. The established vectors were transfected into SF9 packaging viruses, so as to infect the SF9-expressed proteins with the viruses; JAK1 and JAK2 were purchased from Life Technologies (US) and Abcam (US), respectively; JAK3 and BTK were purchased from Progema (US).
(§3) BTK protein kinase 9 μL (concentration of 1.5 ng/μL), JAK1, JAK2, JAK3 protein kinases 9 μL (concentration of 3 ng/μL, 3 ng/μL, 1.5 ng/μL), purified EGFR (WT), EGFR (T790M), EGFR (T790M/L858R) protein kinases 9 μL (all with concentration of 6 ng/μL) were respectively used, and each was reacted with three-fold gradient dilution of pharmaceutical Compound 1 and Compound 19 (final concentrations of the agents were 10 μM, 3 μM, 1 μM, 0.3 μM, 0.1 μM, 0.03 μM, 0.01 μM, 0.003 μM), respectively, at room temperature for 4 hrs;
(§4) 2 μL of ATP and 3 μL of substrate, Poly(4:1 Glu, Tyr)Peptide (Promega, US), were added (final concentrations are 10 μM and 0.2 μg/μL, respectively), and reacted at 37° C. for 1 hr;
(§5) 5 μL of reacted kinase solution was added into 5 μL of ADP-Glo™ (Promega, US) and reacted at room temperature for 40 min, the kinase reaction was stopped and the remained ATP was consumed;
(§6) 10 μL of kinase detection reagent was added to transfer ADP into ATP, and the newly obtained ATP was detected by using coupled luciferase/fluorescein reaction, then the IC50 values were calculated by using a plotting method based on the Envision reading.

EGFR (T790M/L858R) = molecular target: T4, EGFR (T790M/L858R) (Homo sapiens, UniProt P00533, L858R/T790M); experiment: In vitro enzymatic activity (ADP-Glo); type: biochemical; conditions: 4 hrs preincubation, 10 μM ATP
T4 construct: The intracellular segment (699-1068) region of EGFR was cloned into the insect expression vector pAcG2T; GST; made in house; host or cells: SF9 insect cells (baculovirus)
T4 sequence (P00533 699-1068 T790M/L858R): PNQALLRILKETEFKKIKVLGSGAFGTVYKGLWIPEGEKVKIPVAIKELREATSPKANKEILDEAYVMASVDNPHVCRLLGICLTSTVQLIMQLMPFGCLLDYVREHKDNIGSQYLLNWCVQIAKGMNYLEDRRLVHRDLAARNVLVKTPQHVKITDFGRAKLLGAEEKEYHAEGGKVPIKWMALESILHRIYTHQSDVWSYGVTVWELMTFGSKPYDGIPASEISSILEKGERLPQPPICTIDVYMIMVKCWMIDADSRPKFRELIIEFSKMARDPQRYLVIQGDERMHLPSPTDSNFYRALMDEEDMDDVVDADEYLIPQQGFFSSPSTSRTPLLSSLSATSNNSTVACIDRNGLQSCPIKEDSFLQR
Protocol: as §2, §3, §4, §5, §6

EGFR (WT) = molecular target: T5, EGFR (WT) (Homo sapiens, UniProt P00533); experiment: In vitro enzymatic activity (ADP-Glo); type: biochemical; conditions: 4 hrs preincubation, 10 μM ATP
T5 construct: The intracellular segment (699-1068) region of EGFR was cloned into the insect expression vector pAcG2T; GST; made in house; host or cells: SF9 insect cells (baculovirus)
T5 sequence (P00533 699-1068): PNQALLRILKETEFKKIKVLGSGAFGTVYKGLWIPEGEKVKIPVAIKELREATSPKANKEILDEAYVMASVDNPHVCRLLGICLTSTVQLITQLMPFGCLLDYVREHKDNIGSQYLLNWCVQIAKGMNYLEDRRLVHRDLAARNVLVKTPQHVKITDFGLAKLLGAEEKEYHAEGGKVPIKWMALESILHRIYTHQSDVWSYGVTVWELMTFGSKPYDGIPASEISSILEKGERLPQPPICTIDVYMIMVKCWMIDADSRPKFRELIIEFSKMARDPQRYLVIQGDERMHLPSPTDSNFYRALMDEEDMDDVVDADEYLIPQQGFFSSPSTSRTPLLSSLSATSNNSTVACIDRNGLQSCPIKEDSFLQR
Protocol: as §2, §3, §4, §5, §6

JAK3 = molecular target: T6, JAK3 (Homo sapiens, UniProt P52333); experiment: In vitro enzymatic activity (ADP-Glo); type: biochemical; conditions: 4 hrs preincubation, 10 μM ATP
T6 construct: purchased Progema (US) [sic; Promega]
T6 sequence (P52333 whole entry): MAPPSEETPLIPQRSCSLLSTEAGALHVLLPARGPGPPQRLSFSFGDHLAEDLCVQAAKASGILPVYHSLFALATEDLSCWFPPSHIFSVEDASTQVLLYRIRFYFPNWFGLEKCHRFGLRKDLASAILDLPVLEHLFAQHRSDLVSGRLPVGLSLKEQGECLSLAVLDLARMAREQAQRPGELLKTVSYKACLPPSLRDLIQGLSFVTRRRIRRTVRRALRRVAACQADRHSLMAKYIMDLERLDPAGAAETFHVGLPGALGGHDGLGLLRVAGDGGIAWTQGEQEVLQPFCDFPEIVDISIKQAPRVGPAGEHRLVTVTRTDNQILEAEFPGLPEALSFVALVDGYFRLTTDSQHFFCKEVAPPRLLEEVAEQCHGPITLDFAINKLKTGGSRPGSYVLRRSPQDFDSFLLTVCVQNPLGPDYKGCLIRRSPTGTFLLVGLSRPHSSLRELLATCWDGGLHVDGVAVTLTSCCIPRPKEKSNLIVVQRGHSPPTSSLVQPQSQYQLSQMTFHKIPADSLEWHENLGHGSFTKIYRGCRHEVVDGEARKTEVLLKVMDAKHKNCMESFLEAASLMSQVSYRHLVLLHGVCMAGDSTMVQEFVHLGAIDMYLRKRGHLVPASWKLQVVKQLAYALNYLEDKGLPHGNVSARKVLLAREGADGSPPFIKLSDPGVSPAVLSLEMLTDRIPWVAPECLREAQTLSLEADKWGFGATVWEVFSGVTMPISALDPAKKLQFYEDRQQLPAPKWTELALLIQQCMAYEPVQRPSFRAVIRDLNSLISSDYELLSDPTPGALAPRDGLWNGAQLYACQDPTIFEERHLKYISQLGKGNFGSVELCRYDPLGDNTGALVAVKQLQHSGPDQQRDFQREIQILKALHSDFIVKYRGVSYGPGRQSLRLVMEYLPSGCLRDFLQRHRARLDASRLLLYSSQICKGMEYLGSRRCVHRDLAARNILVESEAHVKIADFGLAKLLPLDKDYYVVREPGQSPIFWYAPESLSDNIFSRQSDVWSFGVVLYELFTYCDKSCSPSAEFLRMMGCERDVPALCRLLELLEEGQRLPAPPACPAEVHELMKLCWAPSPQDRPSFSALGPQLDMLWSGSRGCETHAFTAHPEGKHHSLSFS
Protocol: as §2, §3, §4, §5, §6

BTK = BTK (Homo sapiens, UniProt Q06187); experiment: In vitro enzymatic activity (ADP-Glo); type: biochemical; design: purchased Progema (US) [sic; Promega]; conditions: 4 hrs preincubation, 10 μM ATP
Sequence of BTK (Q06187 whole entry): as the sequence (Q06187 whole entry) above
Protocol: as §2, with “(US). […]” for “(US).”
as §6

T1 sequence (Q06187 whole entry C481S): as the sequence (Q06187 whole entry) above, with C481S counted along it

inhibitory effect on BTK C481S (BTK C481S protein) | EC50 [1] [µM] | EC50 (tyrosine Y223 on Btk) [µM] | IC50 (EGFR (T790M)) [µM] | IC50 (EGFR (T790M/L858R)) [µM] | IC50 (EGFR (WT)) [µM] | IC50 (JAK3) [µM] | IC50 (BTK) [µM] | SMILES
no inhibitory effect | – | – | – | – | – | – | – | CCC(=O)Nc1cc(-n2c(=O)ccc3cnc4ccc(-n5cccn5)cc4c32)ccc1C [Compound 19, N-(2-methyl-5-(2-oxo-9-(1H-pyrazol-1-yl)benzo[H][1,6]naphthyridin-1(2H)-yl)phenyl) propionamide]
no inhibition | 0.36 | 0.217 | 5.5 | 1.34 | 2.45 | 0.169 | 0.0756 | C=CC(=O)Nc1cc(-n2c(=O)ccc3cnc4ccc(-n5cccn5)cc4c32)ccc1C [Compound 1, N-(2-methyl-5-(2-oxo-9-(1H-pyrazol-1-yl)benzo[H][1,6]naphthyridin-1(2H)-yl)phenyl)acrylamide]
